Source: US20260207548A1, “METHODS AND COMPOSITIONS FOR THE TREATMENT OF VASCULAR ANOMALIES” (THE CHILDREN'S MEDICAL CENTER CORPORATION, priority 2022, published 2026)
Entries after “also recorded” stand apart in the source; their conditions may differ.

Tests used:
[1] = test system: β1- and β2-adrenergic receptors; settings: cited from earlier work
[2] = target: T1, SOX18 (Homo sapiens, UniProt P35713); settings: cited from earlier work
T1 sequence (P35713 1-384): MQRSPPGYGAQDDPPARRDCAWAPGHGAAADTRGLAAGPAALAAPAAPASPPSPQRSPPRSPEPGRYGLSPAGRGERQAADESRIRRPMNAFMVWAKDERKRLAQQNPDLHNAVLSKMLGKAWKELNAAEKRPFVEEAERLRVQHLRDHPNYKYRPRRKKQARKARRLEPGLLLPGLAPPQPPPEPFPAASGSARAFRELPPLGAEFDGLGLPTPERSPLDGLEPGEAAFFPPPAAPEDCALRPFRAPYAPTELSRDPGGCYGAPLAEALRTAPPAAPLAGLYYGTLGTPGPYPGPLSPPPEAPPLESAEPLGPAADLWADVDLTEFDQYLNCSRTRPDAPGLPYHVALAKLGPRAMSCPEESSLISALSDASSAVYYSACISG

[3] = test system: HemSC; settings: earlier work; cited from earlier work
[4] = test system: MVP genes (HMGCS1, HMGCR, MVK, ABCA1); assay: Mevalonate pathway (MVP) gene transcripts in differentiating HemSC, bulk RNA-seq and qPCR; format: cell-based, human; settings: for transcripts encoding MVP enzymes (incl. HMGCR, HMGCS1, MVK), RNA-seq: 20 μM, 2 hours, Day 6 of differentiation, hydrochloride
[5] = test system: SREBP2; assay: SOX18 shRNA knockdown HemEC: SREBP2 Western blot and qPCR of SREBP2 target genes; format: cell-based, human; settings: shSOX18 HemEC
Protocol: shRNA knockdown of SOX18: HemEC (n=3) were transduced with SOX18 shRNA lentivirus (TRCN0000017450, Sigma) or an empty vector control virus (Sigma) followed by puromycin (1 μg/mL) selection for 5 days. Thereafter, cells were maintained in full media without puromycin. Knockdown efficiency was confirmed by qPCR and Western Blot (FIG. 7C-7G, 8A-8B).
(§1) Cells were lysed in a RIPA-based lysis buffer (25 mM Tris HCl pH 7.6, 150 mM NaCl, 1% NP-40, 1% sodium deoxycholate, 0.1% SDS) with protease and phosphatase inhibitors (Cell Signaling Technology). Cell extracts were electrophoresed by sodium dodecyl sulfate-polyacrylamide gel electrophoresis (SDS-PAGE), transferred to nitrocellulose or to polyvinylidene difluoride (PDVF) and probed with SOX18 D-8 (Santa Cruz Biotechnology) or SREBP2 clone 22D5 (MilliporeSigma) and GAPDH (Cell Signaling Technology). All signals were detected by enhanced chemiluminescence. The densitometric analysis was conducted by using Fiji ImageJ software.

[6] = test system: SREBP2; assay: Western blot of SREBP2 in HemSC undergoing endothelial differentiation; format: cell-based, human; settings: 2 hours on Day 6 of differentiation, hydrochloride
Protocol: as §1

[7] = test system: Hemangioma-derived stem cells (HemSC); settings: earlier work; cited from earlier work
[8] = test system: cholesterol biosynthesis in HUVEC; assay: Endogenous cholesterol in cholesterol-depleted HUVEC by mass spectrometry; format: cell-based, human; settings: 16 hours
Protocol: Cell culture: HUVECs were grown in EBM-2 media (Lonza, CC-3156) and supplemented with EGM-2 bullet kit (Lonza, CC-3162). HUVECs were seeded on 0.5% gelatin-coated 6-well plates at a density of 1.5×10^5 cells/well for overnight.
Methyl-β-cyclodextrin treatment: The day after cell seeding cells were treated with, (MBCD, Sigma #C4555) at a concentration of 2.5 mM to ensure a similar level of endogenous cholesterol among the groups. The treatment with MBCD was completely withdrawn after 4 hours by discarding the media and washed the cells with PBS. […] Cells were then washed with PBS and trypsinized. Following trypsinization cells were washed with PBS and centrifuged (FIG. 4B, 4C).
Cholesterol measurement using Targeted Mass Spectrometry: Lipids were extracted from the cell pellets through one-phase extraction with 202 μL of BuOH: MeOH (1:1) (Sigma #71-36-3 and #67-56-1) that contains […] of cholesterol-d7 (Cayman Chemical #83199-47-7) as the internal standard. The cholesterol analysis was performed on a Thermo Fisher TSQ Altis triple quadrupole mass spectrometer, operated in positive ion mode, coupled to a Vanquish UHPLC system (Thermo Fisher, Waltham, USA) using the transition from precursor mass of m/z 369.3516 (MS1) to m/z 161.1 (MS3) for cholesterol and 376.4 to 161.1 for cholesterol-d7 [REF]. […]

[9] = test system: breast cancer model; settings: in vivo; cited from earlier work
[10] = test system: zebrafish; settings: in vivo; cited from earlier work
[11] = test system: LDL-receptor; assay: LDL-receptor mRNA in HemSC as indirect measure of HMGCR inhibition; format: cell-based, human; settings: 1 μM atorvastatin, 24 hours
[12] = test system: HemSC; settings: atorvastatin 0.1 μM, 6 days
[13] = test system: Hemangioma-derived stem cells (HemSC); assay: IH xenograft model: patient-derived HemSC in Matrigel injected subcutaneously into nude mice, human blood vessel formation; format: in vivo
Protocol: MilliporeSigma) was prepared in DMSO. […] Dako, Glostrup, 0823) to stain human ECs. Next, sections were incubated with Alexa Fluor 647 chicken anti-mouse IgG (1:200, Invitrogen, Thermo Fisher Scientific) as a secondary antibody (FIG. 9C, 9D).

[14] = test system: infantile hemangioma; settings: infants with IH; cited from earlier work

SMILES: CC(C)NC[C@H](O)COc1cccc2ccccc12 (single isomer, unassigned) [S(−) enantiomer]
- β1 and β2-adrenergic receptor antagonism [1]: potent antagonist

SMILES: CC(C)NC[C@@H](O)COc1ccc(CC(N)=O)cc1 [R(+) atenolol]
- SOX18 activity [2]: inhibit

SMILES: CC(C)NC[C@@H](O)COc1cccc2ccccc12.Cl [R(+) propranolol, R(+) propranolol hydrochloride]
- HemSC endothelial differentiation in vitro [3]: inhibits
- SOX18 activity [2]: inhibit
- transcripts encoding MVP enzymes (incl. HMGCR, HMGCS1, MVK), RNA-seq [4]: significantly reduced transcripts encoding several enzymes of the MVP
- transcripts encoding MVP enzymes (incl. HMGCR, HMGCS1, MVK), RNA-seq ([4]; listed as R+ propranolol): inhibits eight enzymes in the mevalonate pathway
- ABCA1 mRNA, qPCR ([4]; 2 hours or 4 days treatment): upregulated
- HMGCS1, HMGCR and MVK mRNA, qPCR ([4]; 2 hours or 4 days treatment): Downregulation
- downregulation of MVP transcripts ([4]; Day 4 of differentiation): not seen
- HMGCS1 and HMGCR mRNA levels [5]: did not reduce the mRNA levels
- mature 62 kDa SREBP2 [6]: decreased mature 62 kDa SREBP2
- mature 62 kDa SREBP2 ([6]; listed as R+ propranolol): decreased levels of 62 kDa mature SREBP2
- HemSC vasculogenesis in vivo [7]: inhibits
- endogenous cholesterol levels ([8]; 20 μM R+ propranolol after MBCD depletion, hydrochloride): significantly reduced; also recorded: decreased new synthesis of cholesterol

SMILES: O=C(O)c1c(O)cccc1CCc1ccc2ccccc2c1 [Sm4]
- tumor angio- and lymph-angiogenesis [9]: suppresses
- vascular development [10]: suppresses vascular development in zebrafish
- endogenous cholesterol levels ([8]; 40 μM Sm4 after MBCD depletion): significantly reduced; also recorded: decreased new synthesis of cholesterol

SMILES: CC(C)c1c(C(=O)Nc2ccccc2)c(-c2ccccc2)c(-c2ccc(F)cc2)n1CC[C@@H](O)C[C@@H](O)CC(=O)O [atorvastatin]
- LDL-R mRNA [11]: significant upregulation of LDL-R mRNA; also recorded: increase LDL receptor mRNA
- VEGF-B induced endothelial differentiation (mRNA of CD31 and VE-Cadherin) [12]: significantly inhibited endothelial differentiation; also recorded: inhibited VEGF-B induced endothelial differentiation
- human CD31+ blood vessel formation from HemSC ([13]; atorvastatin 1 mg/kg/d, 7 days): significantly blocked the formation of human blood vessels; also recorded: significantly inhibited human CD31+ blood vessel formation
- HemSC blood vessel formation in xenograft model ([13]; overall statement, no single dose): inhibited blood vessel formation; also recorded: significantly reduced HemSC blood vessel formation in a dose-dependent manner; also recorded: inhibit IH vessel formation

SMILES: CC(C)NCC(O)COc1cccc2ccccc12 (stereo not drawn) [propranolol]
- β1 and β2-adrenergic receptor antagonism [1]: non-selective antagonist
- complete response rate [14]: 60%

SMILES: CCC(C)(C)C(=O)O[C@H]1C[C@@H](C)C=C2C=C[C@H](C)[C@H](CC[C@@H]3C[C@@H](O)CC(=O)O3)[C@H]21 [simvastatin]
- lowest dose that showed significant reduction in IH vessels ([13]; simvastatin dose response 0.1-10 mg/kg/d): 1 mg/kg/day
